Bounds are passed on as bounds.

The first assay has as its system NFAT. Put plainly: NFAT activation assay (luciferase reporter, PMA and ionomycin). Type of assay: cell-based. Particulars: Homo sapiens; 10 μM compound; Jurkat cells; 15 nM PMA and 0.5 μM ionomycin; 18 hours; read-out: Activity 10 μM (% inhibition of NFAT luciferase luminescence). On the procedure:
Jurkat cells (BPS Bioscience catalog No. 60621) were seeded at 40,000 cells per well into white clear-bottom 96-well microplate in 80 μl of growth medium without Geneticin. 10 μl of testing compounds (final 10 μM) were added to each well and preincubated with cells for half an hour. Then 10 μl of PMA and ionomycin mixture were added to each well to make the final concentration of 15 nM PMA and 0.5 μM ionomycin. Cells were incubated at 37° C. and 5% CO2 incubator for 18 hours. After treatment, cells were lysed and the luciferase assay was performed using ONE-Step luciferase assay system by adding 100 μl of One-Step Luciferase reagent (BPS Bioscience catalog No. 60690) per well followed by rocking at room temperature for about 30 minutes. Luminescence was measured using a luminometer (BioTek Synergym™ 2 microplate reader). The percent luminescence in the presence of each compound was calculated according to the following equation: % Luminescence=(L−Lb)/(Lt−Lb), where L=the luminescence intensity in the presence of the compound, Lb=the luminescence intensity in the absence of cells, and Lt=the luminescence intensity in the absence of the compound. The percent inhibition was calculated by: % inhibition=100−(% Luminescence).
(Reporter assays use an easily measured gene product as a stand-in for the process of interest.)
Usually inhibition stands for the change of the read-out against control, counted positive when it falls. As for `O=C(Nc1ccncc1F)c1cn(CC2CC2)c2cccnc12` [Example 18, 1-(cycloproylmethyl)-N-(3-fluoropyridin-4-yl)-1H-pyrrolo[3,2-b]pyridine-3-carboxamide], the inhibition at 10 µM was 26 to 50%. Still for that read-out and setting: the same measure for `O=C(Nc1ccncc1F)c1nn(CC2CC2)c2cc(F)ccc12` [Example 38, 1-(cyclopropylmethyl)-6-fluoro-N-(3-fluoropyridin-4-yl)-1H-indazole-3-carboxamide]: greater than 75%. On the same count and under the same terms, the same measure for `O=C(Nc1c(F)cncc1F)c1ccn(CC2CC2)n1` [Example 22, 1-(cyclopropylmethyl)-N-(3,5-difluoropyridin-4-yl)-1H-pyrazole-3-carboxamide]: less than 25%; for `Fc1cnccc1NCc1cn(CC2CC2)c2ccccc12` [Example 15, N-((1-(cyclopropylmethyl)-1H-indol-3-yl)methyl)-3-fluoropyridin-4-amine]: 26 to 50%. The same measure, in the same setting: to `Cc1cnccc1NC(=O)c1ccn(CC2CC2)n1` [Example 19, 1-(cyclopropylmethyl)-N-(3-methylpyridin-4-yl)-1H-pyrazole-3-carboxamide] belongs 51 to 75%; to `O=C(Nc1ccncc1F)c1cn(CC2CC2)c2ncccc12` [Example 5, 1-(cycloproylmethyl)-N-(3-fluoropyridin-4-yl)-1H-pyrrolo[2,3-b]pyridine-3-carboxamide], 26 to 50%. With `Cc1cnccc1NC(=O)c1nn(CC2CCC2)c2c1CCCC2` [Example 40, 1-(cyclobutylmethyl)-N-(3-methylpyridin-4-yl)-4,5,6,7-tetrahydro-1H-indazole-3-carboxamide], the inhibition at 10 µM is greater than 75%. On the same count and under the same terms, to `O=C(Nc1ccncc1F)c1nn(CC2CC2)c2ccccc12` [Example 23, 1-(cyclopropylmethyl)-N-(3-fluoropyridin-4-yl)-1H-indazole-3-carboxamide] belongs greater than 75%. On the same count and under the same terms, to `O=C(Nc1c(F)cncc1F)c1cn(CC2CC2)c2ccccc12` [Example 3, 1-(cyclopropylmethyl)-N-(3,5-difluoropyridin-4-yl)-1H-indole-3-carboxamide] belongs 51 to 75%; to `O=C(Nc1ccncc1F)c1nn(CC2CC2)c2c1CCCC2` [Example 25, 1-(cyclopropylmethyl)-N-(3-fluoropyridin-4-yl)-4,5,6,7-tetrahydro-1H-indazole-3-carboxamide], greater than 75%. Same read-out and setting: to `O=C(Nc1ccncc1F)c1nn(CC2CCC2)c2c1CCCC2` [Example 33, 1-(cyclobutylmethyl)-N-(3-fluoropyridin-4-yl)-4,5,6,7-tetrahydro-1H-indazole-3-carboxamide] belongs greater than 75%. With `Cc1cnccc1NC(=O)c1nn(CC2CC2)c2c1CCCC2` [Example 42, 1-(cyclopropylmethyl)-N-(3-methylpyridin-4-yl)-4,5,6,7-tetrahydro-1H-indazole-3-carboxamide], the inhibition at 10 µM is greater than 75%. Still for that read-out and setting: to `O=C(Nc1ccncc1F)c1cn(CC2COC2)c2ccccc12` [Example 12, N-(3-fluoropyridin-4-yl)-1-(oxetan-3-ylmethyl)-1H-indole-3-carboxamide] belongs less than 25%. For `O=C(Nc1ccncc1F)c1nn(CC2CC2)c2c(F)cccc12` [Example 39, 1-(cyclopropylmethyl)-7-fluoro-N-(3-fluoropyridin-4-yl)-1H-indazole-3-carboxamide], the inhibition at 10 µM lay in the range of 51 to 75%. `Cc1c(C(=O)Nc2ccncc2F)c2ccccc2n1CC1CC1` [Example 43, 1-(cyclopropylmethyl)-N-(3-fluoropyridin-4-yl)-2-methyl-1H-indole-3-carboxamide]: the inhibition at 10 µM was greater than 75%.

For `O=C(Nc1c(F)cccc1F)c1ccn(CC2CC2)n1` [Example 21, 1-(cyclopropylmethyl)-N-(2,6-difluorophenyl)-1H-pyrazole-3-carboxamide], the inhibition at 10 µM was less than 25%. As for `O=C(Nc1c(F)cccc1F)c1nn(CC2CC2)c2c1CCCC2` [Example 26, 1-(cyclopropylmethyl)-N-(2,6-difluorophenyl)-4,5,6,7-tetrahydro-1H-indazole-3-carboxamide], the inhibition at 10 µM lay in the range of 51 to 75%. `O=C(Nc1ccn(CC2CC2)n1)c1c(F)cncc1F` [Example 27, N-(1-(cyclopropylmethyl)-1H-pyrazol-3-yl)-3,5-difluoroisonicotinamide]: the inhibition at 10 µM was 26 to 50%. Same read-out and setting: the same measure for `O=C(Nc1ccn(CC2CC2)n1)c1ccncc1F` [Example 28, N-(1-(cyclopropylmethyl)-1H-pyrazol-3-yl)-3-fluoroisonicotinamide]: less than 25%.

Consider `Cc1cnccc1NC(=O)c1nn(CC2CC2)c2ccccc12` [Example 6, 1-(cyclopropylmethyl)-N-(3-methylpyridin-4-yl)-1H-indazole-3-carboxamide], for which the inhibition at 10 µM is greater than 75%. On the same count and under the same terms, the same measure for `O=C(Nc1ccncc1F)c1cn(CC2CC2)c2ccncc12` [Example 17, 1-(cyclopropylmethyl)-N-(3-fluoropyridin-4-yl)-1H-pyrrolo[3,2-c]pyridine-3-carboxamide]: less than 25%; for `O=C(Nc1ccncc1F)c1nn(CC2CC2)c2c1CCC2` [Example 32, 1-(cycloproylmethyl)-N-(3-fluoropyridin-4-yl)-1,4,5,6-tetrahydrocyclopenta[c]pyrazole-3-carboxamide]: greater than 75%. Same read-out and setting: the same measure for `O=C(Nc1ccncc1F)c1ccn(CC2CC2)n1` [Example 20, 1-(cyclopropylmethyl)-N-(3-fluoropyridin-4-yl)-1H-pyrazole-3-carboxamide]: 51 to 75%; for `O=C(Nc1ccncc1F)c1nn(CC2CC2)c2ccc(F)cc12` [Example 37, 1-(cyclopropylmethyl)-5-fluoro-N-(3-fluoropyridin-4-yl)-1H-indazole-3-carboxamide]: greater than 75%. Same read-out and setting: to `Cc1ccc2c(c1)c(C(=O)Nc1ccncc1F)nn2CC1CC1` [Example 34, 1-(cyclopropylmethyl)-N-(3-fluoropyridin-4-yl)-5-methyl-1H-indazole-3-carboxamide] belongs greater than 75%; to `Cc1cnccc1NC(=O)c1nn(CC2CCC2)c2ccccc12` [Example 11, 1-(cyclobutylmethyl)-N-(3-methylpyridin-4-yl)-1H-indazole-3-carboxamide], greater than 75%; to `Cc1cnccc1NC(=O)c1nn(CC2CC2)c2c1CCC2` [Example 41, 1-(cycloproylmethyl)-N-(3-methylpyridin-4-yl)-1,4,5,6-tetrahydrocyclopenta[c]pyrazole-3-carboxamide], 51 to 75%. For `O=C(Nc1ccncc1F)c1nn(CC2CC2)c2ccc(Br)cc12` [Example 36, 1-(cyclopropylmethyl)-5-bromo-N-(3-fluoropyridin-4-yl)-1H-indazole-3-carboxamide], the inhibition at 10 µM is 51 to 75%.

As to `O=C(Nc1ccncc1F)c1nn(CC2CCC2)c2ccccc12` [Example 10, 1-(cyclobutylmethyl)-N-(3-fluoropyridin-4-yl)-1H-indazole-3-carboxamide], the inhibition at 10 µM is greater than 75%. Take `CN(C(=O)c1cn(CC2CC2)c2ccccc12)c1ccncc1F` [Example 14, 1-(cyclopropylmethyl)-N-(3-fluoropyridin-4-yl)-N-methyl-1H-indole-3-carboxamide]: the inhibition at 10 µM was less than 25%.

As to `O=C(Nc1ccncc1F)c1nn(CC2CC2)c2cc(Cl)ccc12` [Example 35, 6-chloro-1-(cyclopropylmethyl)-N-(3-fluoropyridin-4-yl)-1H-indazole-3-carboxamide], the inhibition at 10 µM was 51 to 75%. For the compound `O=C(Nc1ccncc1F)c1cn(CC2CC2)c2cnccc12` [Example 16, 1-(cycloproylmethyl)-N-(3-fluoropyridin-4-yl)-1H-pyrrolo[2,3-c]pyridine-3-carboxamide], the inhibition at 10 µM is less than 25%. On the same count and under the same terms, the same measure for `O=C(Nc1ccncc1F)c1nn(CC2CC2)c2ncccc12` [Example 31, 1-(cyclopropylmethyl)-N-(3-fluoropyridin-4-yl)-1H-pyrazolo[3,4-b]pyridine-3-carboxamide]: 51 to 75%; for `Cc1cnccc1C(=O)Nc1ccn(CC2CC2)n1` [Example 30, N-[1-(cyclopropylmethyl)-1H-pyrazol-3-yl]-3-methylpyridine-4-carboxamide]: less than 25%.

The next assay concerns Rat mast cells (RBL-2H3 cells). Put plainly: Calcium influx assay (Fluo-4NW, thapsigargin store depletion, Ca2+ re-addition). Type of assay: cell-based. Conditions: 1 μM compound, control = DMSO, read-out: Fluo-4NW fluorescence (Ca2+ influx), % of control. On the procedure: Rat mast cells (RBL-2H3 cells) (ATCC) were seeded in 96-well plate at 4×10^4 cells per well in DMEM-supplemented with 2% FBS and allowed to adhere overnight. Culture medium was then replaced with 50 μl of Ca^2+-free Tyrode buffer to load Ca^2+-probe Fluo-4NW (Molecular Probe, Thermo Fisher, MA, USA) per manufacturer instruction. A testing compound at indicated concentrations was supplied during the probe loading from the beginning. Cells were incubated in the presence or absence of a testing compound for 60 minutes in the Ca^2+-free medium at 37° C. During the last 5 minutes of incubation, cells were treated with 1 μM thapsigargin (Tg, Sigma Aldrich) to deplete [Ca^2+]ER, 20 mM CaCl2 in normal saline solution was supplemented back to the [Ca^2+]ER-depleted cells to have 2 mM as final concentration. Culture medium was removed 1 minute after Ca^2+ reloading, and changes in Fluo-4NW fluorescence (RFU) were recorded with the multi-mode plate reader (FilterMax F5, Molecular Devices/Thermo Fisher Scientific, MA, USA) at an excitation wavelength of 485 nm and an emission wavelength of 535 nm. The inhibitory activity of the tested compound was presented as % of control (DMSO).
In the case of `O=C(Nc1c(F)cncc1F)c1cn(CC2CC2)c2ccccc12` [Example 3, 1-(cyclopropylmethyl)-N-(3,5-difluoropyridin-4-yl)-1H-indole-3-carboxamide], the activity at 1 µM was found to be 66%.

The assay is the same for the next values; noted with them: 10 μM compound, control = DMSO, read-out: Fluo-4NW fluorescence (Ca2+ influx), % of control.
Regarding `O=C(Nc1c(F)cncc1F)c1cn(CC2CC2)c2ccccc12` [Example 3, 1-(cyclopropylmethyl)-N-(3,5-difluoropyridin-4-yl)-1H-indole-3-carboxamide], the activity at 10 µM was found to be 37%.

For the origin of these results see US12459938B2, “ORAI channel inhibitors” (Beth Israel Deaconess Medical Center, Inc., priority 2019, dated 2025).
